Laboratory results published in US5760036A, “Aminediol protease inhibitors” (E. R. Squibb & Sons, Inc., priority 1995, dated 1998).
Counter-ions that a name gives are not always drawn. Like-named read-outs stand apart in the source and are kept apart here.

How the values were obtained:
[1] = test system: RF strain of HIV (CEM-SS cells); assay: Cell Culture Anti-HIV Activity (cell viability, formazan); format: cell-based; settings: Human immunodeficiency virus 1, CEM-SS, 144 h, CEM-SS cells, RF strain of HIV, multiplicity of infection 0.04, 6 days at 37° C., 450 nm; read-out: HIV (CEM Cells) IC50
Outline: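 CEM-SS cells (5000/well) infected with HIV RF at MOI 0.04, exposed to half-log serial compound dilutions, incubated 6 days at 37° C. Viability read by tetrazolium reduction to formazan, absorbance 450 nm. IC50 is the concentration raising formazan in infected cells to 50% of uninfected, drug-free cells.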

HIV protease = target: T1, HIV protease (Human immunodeficiency virus type 1 group M subtype B, UniProt P04585); assay: HIV Protease Assay; format: biochemical; settings: for HIV Protease % Inhibition at 10 μM: 10 μM inhibitor
T1 construct: and purified protease
Outline: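 Purified protease cleaved 450 μM octapeptide substrate in 50 mM sodium acetate pH 5.5 with 100 μg/ml BSA for 30 minutes at 37° C; product analyzed by reverse-phase HPLC at UV220 after H3PO4 quench. Inhibitors tested at final 10 μM with 4% DMSO.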

[2] = pH 5.5, 10 μM inhibitor, 4% DMSO, 450 μM substrate, pH 5.5, 30 minutes at 37° C., RP-HPLC, read-out: HIV Protease % Inhibition at 10 μM
[3] = pH 5.5, read-out: HIV Protease % Inhibition at 10 μM
[4] = 4% DMSO, 450 μM substrate, pH 5.5, 30 minutes at 37° C., RP-HPLC

inhibition at 10 µM (HIV protease; [2]) [%]	inhibition at 10 µM (HIV protease; [3]) [%]	HIV Protease % Inhibition at 10 μM (HIV protease; [4]) [%]	SMILES	IC50 [1] [µM]
100			CC(C)C[C@H](N)C(=O)N[C@H](C(=O)N[C@@H](Cc1ccccc1)[C@H](O)CNC[C@@H](O)[C@H](Cc1ccccc1)NC(=O)OC(C)(C)C)C(C)C [Compound 98, [S-[1R*,2S*(2S*,3R*)]-N-[3-[[3-[[(1,1-Dimethylethoxy)carbonyl]amino]-2-hydroxy-4-phenylbutyl]amino]-2-hydroxy-1(phenylmethyl)propyl]-N^2-(L-leucyl)-L-valinamide, fumarate salt]	1.3
	94		CC(C)(C)OC(=O)N[C@@H](Cc1ccccc1)[C@H](O)CNC[C@@H](O)[C@H](Cc1ccccc1)NC(=O)[C@@](C)(O)C(C)(C)C [Compound 261, [1S-[1R*,2S*[2R*,3R*(R*)]]]-[3-[[3-[(2-Hydroxy-2,3,3-trimethyl-1-oxobutyl)amino]-2-hydroxy-4-phenylbutyl]amino]-2-hydroxy-1--(phenylmethyl)propyl]carbamic acid, 1,1-dimethylethyl ester]	1.1
98			CNC(=O)N[C@H](C(=O)N[C@@H](Cc1ccccc1)[C@H](O)CNC[C@@H](O)[C@H](Cc1ccccc1)NC(=O)OC(C)(C)C)C(C)(C)C (relative stereo) [Compound 263, [1R*,2S*(2S*,3R*)]-N-[3-[[3-[[(1,1-Dimethylethoxy)carbonyl]amino]-2-hydroxy-4-phenylbutyl]amino]-2-hydroxy-1-(phenylmethyl)propyl]-N^2-[(methylamino)carbonyl]-3-methyl-L-valinamide]	0.34
99			CC(C)(C)OC(=O)N[C@@H](Cc1ccccc1)[C@H](O)CNC[C@@H](O)[C@H](Cc1ccccc1)NC(=O)SC(C)(C)C [Compound 184, [1S-[1R*,2S*(2S*,3R*)]]-[3-[[3-[[[(1 1-Dimethylethyl)thio)carbonyl]amino]-2-hydroxy-4-phenylbutyl]amino]-2-hydroxy-1-(phenylmethyl)-propyl]carbamic acid, 1,1-dimethylethyl ester]	1.3
99			CC(C)[C@H](NC(=O)c1ccc2ccccc2c1)C(=O)N[C@@H](Cc1ccccc1)[C@H](O)CNC[C@@H](O)[C@H](Cc1ccccc1)NC(=O)OC(C)(C)C [Compound 79, [S-[1R*,2S*(2S*,3R*)]]-N-[3-[[3-[[(1,1-Dimethylethoxy)carbonyl]amino]-2-hydroxy-4-phenylbutyl]amino]-2-hydroxy-1-(phenylmethyl)propyl]-N^2 (2-naphthalenylcarbonyl)-L-valinamide]	0.4
10			CN(CC(=O)[C@H](Cc1ccccc1)NC(=O)OC(C)(C)C)C[C@@H](O)[C@H](Cc1ccccc1)NC(=O)OC(C)(C)C [Compound 197, [1S-[1R*(2S*,3R*)]]-[3-[[3-[[(1,1-Dimethylethoxy)carbonyl]-amino]-2-hydroxy-4-phenylbutyl]-methylamino]-2-oxo-1-(phenylmethyl)propyl]carbamic acid, 1,1-dimethylethyl ester]	> 10
		98	CC(C)(C)OC(=O)N[C@@H](Cc1ccccc1)[C@H](O)CNC[C@@H](O)[C@H](Cc1ccccc1)NC(=O)C1(O)COCC1(C)C (single isomer, unassigned; isomer a) [Compound 364, [1S-[1R*,2S*(2S*,3R*)]]-[2-Hydroxy-3-[[tetrahydro-3-hydroxy-4,4-dimethyl-3-furanyl)carbonyl]amino]-4-phenylbutyl]amino]-1-(phenylmethyl)-propyl]carbamic acid, 1,1-dimethylethyl ester, Isomer A]	0.22
95			CC(C)(C)OC(=O)N[C@@H](Cc1ccccc1)[C@H](O)CNC[C@@H](O)[C@H](Cc1ccccc1)NC(=O)OC(C)(C)C#CCCc1ccccc1 [Compound 155, [1S-(1R*,2S*)]-[Iminobis[2-hydroxy-1-(phenylmethyl)-3,1-propanediyl]biscarbamic acid, 1,1-dimethylethyl 1,1-dimethyl-5-phenyl-2-pentynyl ester]	> 0.2
77			CC(C)[C@H](NC(=O)OCc1ccccc1)C(=O)N[C@@H](Cc1ccccc1)[C@H](O)CNC[C@@H](O)[C@H](Cc1ccccc1)N(C)C(=O)OC(C)(C)C [Compound 141, [S-[1R*,2S*(2S*,3R*)]-N-[3-[[3-[[(1,1-Dimethylethoxy)carbonyl]methylamino]-2-hydroxy-4-phenylbutyl]amino]-2-hydroxy-1-(phenylmethyl)propyl]-N^2-[(phenylmethoxy)-carbonyl]-L-valinamide]]	> 2.3
99			COC(=O)N[C@H](C(=O)N[C@@H](Cc1ccccc1)[C@H](O)CNC[C@@H](O)[C@H](Cc1ccccc1)NC(=O)OC(C)(C)C)C(C)C (relative stereo) [Compound 247, [1R*,2S*,3R*)]-N-[3-[[3-[[(1,1-Dimethylethoxy)carbonyl]amino]-2-hydroxy-4-phenylbutyl]amino]-2-hydroxy-1-(phenylmethyl)propyl]-N^2-(methoxycarbonyl)-L-valinamide]	0.1
	99		CC(C)(C)OC(=O)N[C@@H](Cc1ccccc1)[C@H](O)CNC[C@@H](O)[C@H](Cc1ccc(OCC(O)c2cccnc2)cc1)NC(=O)OC(C)(C)C (single isomer, unassigned; isomer a) [Compound 355, [1S-[1R*,2S* (2S*,3R*)]]-[3-[[3-[[(1,1-Dimethylethoxy)carbonyl]amino]-2-hydroxy-4-[4-[2-hydroxy-2-(3-pyridinyl)ethoxy]phenyl]-butyl]amino]-2-hydroxy-1-(phenylmethyl)-propyl]-carbamic acid, 1,1-dimethylethyl ester, Isomer A]	0.07
100			CC(C)(C)OC(=O)N[C@@H](Cc1ccccc1)[C@H](O)CNC[C@@H](O)[C@H](Cc1ccccc1)NC(=O)OC1CCOC1 (stereo partly drawn) [Compound 310, [1S-(1R*,2S*)]l-[Iminobis[2-hydroxy-1-(phenylmethyl)3,1-propanediyl]]bis[carbamic acid], 3-tetrahydrofuranyl 1,1-dimethylethyl ester]	0.18
99			CC(C)(C)OC(=O)N[C@@H](Cc1ccccc1)[C@H](O)CNC[C@@H](O)[C@H](Cc1ccc(OCc2ccccc2)cc1)NC(=O)OC(C)(C)C [Compound 179, [1S-[1R*,2S*(2S*,3R*)]]-[3-[[3-[[(1,1-Dimethylethoxy)carbonyl]amino]-2-hydroxy-4-phenylbutyl]amino]-2-hydroxy-1-[[4-(phenylmethoxy)-phenyl]methyl]propyl]carbamic acid, 1,1-dimethylethyl ester]	0.17
		88	CC(C)(C)OC(=O)N[C@@H](Cc1ccccc1)[C@H](O)CNC[C@@H](O)[C@H](Cc1ccccc1)NC(=O)OC1c2ccccc2CC1O (stereo partly drawn) [Compound 148, [1S-(1R*, 2S*)]-[Iminobis[2-hydroxy-1-(phenylmethyl)-3,1-propanediyl)]biscarbamic acid, 1,1-dimethylethyl 2,3-dihydro-2-hydroxy-1H-inden-1-yl ester]	2
